In series [1] the target is T1, Carbonic anhydrase 2 (Homo sapiens, UniProt P00918).
Description: Inhibition of human carbonic anhydrase 2 by 4-NPA hydrolysis assay
Series [2] deals with T1, Carbonic anhydrase 2. This is another data set of the same source.
Description: Binding affinity to human carbonic anhydrase 2 in presence of 10 mM PIPES and 100 uM Na2SO4 at pH 7.0 by ThermoFluor method
The target in series [3] is T1, Carbonic anhydrase 2. This is another data set of the same source.
Description: Binding affinity to human carbonic anhydrase 2 in presence of 10 mM PIPES without Na+ at pH 7.0 by ThermoFluor method
Series [4] has as its target T1, Carbonic anhydrase 2. This is another data set of the same source.
Description: Binding affinity to human carbonic anhydrase 2 in presence of 10 mM PIPES and 200 uM NaCl at pH 7.0 by ThermoFluor method
In series [5] the target is T1, Carbonic anhydrase 2. The source holds these as a separate data set.
Description: Binding affinity to human carbonic anhydrase 2 in presence of 10 mM HEPES and 100 uM Na2SO4 at pH 7.5 by ThermoFluor method
Series [6] deals with T1, Carbonic anhydrase 2. The source holds these as a separate data set.
Description: Binding affinity to human carbonic anhydrase 2 in presence of 10 mM HEPES without Na+ at pH 7.5 by ThermoFluor method
Series [7] can be described thus: Dissociation constant, pKa of the compound. It is filed as physicochemical.

`CC1(C)O[C@H]2[C@@H]3OCO[C@@H]3CO[C@@]2(CNS(N)(=O)=O)O1`: in series [1], the Ki amounted to 300 µM. Besides, the dissociation constant Kd in series [2], in series [3], in series [4], in series [5] and in series [6] was above 57 µM throughout.
`CC1(C)O[C@@H]2[C@@H](CO[C@@]3(CNS(N)(=O)=O)OC(C)(C)O[C@@H]23)O1` gave a pKa in series [7] of 10.7.
Same read-out and setting: to `CC1(C)O[C@@H]2[C@@H](CO[C@@]3(COS(N)(=O)=O)OC(C)(C)O[C@@H]23)O1` [TOPIRAMATE] belongs 8.7.

Broadly, the Ki is a dissociation constant, usually derived from enzyme kinetics or from competition with a known ligand. A high value points to a looser hold on the target. What is called Kd is the free concentration of one partner at which half of the binding sites on the other are occupied at equilibrium, for simple one-to-one binding. A low value points to higher affinity. In general, pKa refers to the pH at which an ionisable group is half protonated. Read a high pKa as a group that holds its proton tightly.

The record behind these values is ChEMBL document CHEMBL1144768 (J Med Chem, 2008).
